Results: article PMC11183791, “Vancomycin population pharmacokinetics and dosing proposal for the initial treatment in obese adult patients” (Frontiers in Pharmacology, 2024)
In brackets after ≈: the same amount, converted by molar mass.

What was measured:
[1] = cited from earlier work
[2] = Vancomycin trough serum levels after loading dose with and without the guidance of clinical pharmacists (TDM, KIMS immunoturbidimetry); format: in vivo, human
Experimental: The lower limits of detection and quantitation were 1.5 and 4.0 mg/L, respectively, and the measuring range was from 4.0 to 80.0 mg/L. Only levels measured during initial vancomycin therapy (first 3 days of treatment) were included in the PK analysis. If available, the MIC value of vancomycin for the isolated bacterial strain was also recorded.
Vancomycin t1/2 was calculated from Vd and clearance (CL) values using the following formula: t1/2 = 0.693 × Vd/CL. Descriptive parameter medians and interquartile range (IQR) were calculated using MS Excel 2013 (Microsoft Corporation, Redmond, United States). The Mann–Whitney U-test was used to compare vancomycin loading doses (LDs)with and without the guidance of clinical pharmacists and compare trough levels reached after loading dose administration. The linear regression model was used to evaluate the relationships between vancomycin PK parameters (Vd and CL) and continuous variables (BW, LBM, BSA, BMI, creatinine, and cystatin C-based eGFR). GraphPad Prism software version 8.2.1 (GraphPad Inc., La Jolla, CA, USA) was used for all comparisons, and p-levels <0.05 were considered statistically significant.

[3] = test system: isolated bacterial strain (Staphylococcus spp., Enterococcus spp., Klebsiella pneumoniae, Streptococcus agalactiae); settings: isolated bacterial strains of the study patients
[4] = bootstrap analysis, 250 replicates
[5] = obese adults (BMI ≥30 kg/m^2), n = 138, iv infusion, first 3 days of treatment, one-compartment model

CN[C@H](CC(C)C)C(=O)N[C@H]1C(=O)N[C@@H](CC(N)=O)C(=O)N[C@H]2C(=O)N[C@H]3C(=O)N[C@H](C(=O)N[C@H](C(=O)O)c4cc(O)cc(O)c4-c4cc3ccc4O)[C@H](O)c3ccc(c(Cl)c3)Oc3cc2cc(c3O[C@@H]2O[C@H](CO)[C@@H](O)[C@H](O)[C@H]2O[C@H]2C[C@](C)(N)[C@H](O)[C@H](C)O2)Oc2ccc(cc2Cl)[C@H]1O [vancomycin, Vancomycin]
elimination half-life (t1/2) ([1]; can be prolonged in renal insufficiency, ref Rybak, 2006): 6 to 12 h | distribution half-life ([1]; ref Matzke et al., 1986): approximately 7 min | distribution phase duration ([1]; ref Matzke et al., 1986): approximately 0.5 h | absorption after oral administration ([1]; ref Rybak et al., 2009): not absorbed efficiently | portion of dose excreted unchanged via glomerular filtration ([1]; ref Rybak, 2006): majority | contribution of the distribution phase to total vancomycin exposure ([1]; ref Shingde et al., 2019): < 10% | median trough level after LD relative to the recommended therapeutic range (15–20 mg/L) ([2]; LD with the guidance of clinical pharmacists): in | median trough level after LD relative to the recommended therapeutic range (15–20 mg/L) ([2]; LD without the guidance of clinical pharmacists): out of the recommended therapeutic range | CL_pop, bootstrap median (95% CI) [4]: 1.27 (1.24–1.31) L/h | Vd_pop, bootstrap median (95% CI) [4]: 79.3 (77.8–80.9) L | β_CL_LBM, bootstrap median (95% CI) [4]: 0.011 (0.0108–0.0113) kg | β_CL_eGFR, bootstrap median (95% CI) [4]: 0.61 (0.60–0.63) mL/s/1.73 m^2 | CL, median (interquartile range) of individual estimates (conditional modes) [5]: 6.65 (4.95–8.42) L/h | Vd, median (interquartile range) of individual estimates (conditional modes) [5]: 74.0 (70.5–75.4) L | elimination half-life t1/2, median (interquartile range) of individual estimates (obese adults, n = 138, t1/2 = 0.693 × Vd/CL): 7.7 (6.0–10.0) h | t1/2 corresponding to estimated CL and Vd of 75 L (patient with LBM of 68 kg and eGFR of 1.51 mL/s/1.73 m^2): 7.4 h | CL estimated from the final covariate equation (patient with LBM of 68 kg and eGFR of 1.51 mL/s/1.73 m^2 (median values of the study population)): 7 L/h | Vd_pop, final model estimate (typical value of parameter, final covariate population PK model, obese adults): 75.0 L | CL_pop, final model estimate (typical value, CL=CL_pop×e^(β_CL_eGFR×eGFR)×e^(β_CL_LBM×LBM)): 1.32 L/h | MIC, median (min–max) [3]: 1 (≤0.5–2) mg/L | MIC, modus [3]: 1 µg/mL (≈ 0.69 µM)
